This note sets out measurements from article PMC12656546, “Enterohepatic Recirculation-Mediated Reabsorption of Aristolochic Acid I: Revealed by Toxicokinetics and Metabolite Identification in Rats” (Toxics, 2025).

A short description of this data set: Qualitative analysis of AAI and metabolites in bile of bile duct-cannulated rats. The data set is classed as in vivo, F344 rats. Conditions: 30 mg/kg AAI oral, bile collected 0–3 h, 3–6 h, 6–9 h, 9–12 h, qualitative UHPLC-Q-Exactive. As for the experimental part:
Ten 6-week-old F344 rats were divided into a control group (n = 2) and a treatment group (n = 8), with equal numbers of males and females in each group. During the experiment, rats were fasted and had access to water ad libitum. Rats in the control group were administered with 0.5% CMC-Na suspension via gastric gavage. For the treatment group, rats were administered with 30 mg/kg of AAI by the same route. Rats underwent bile duct cannulation for bile sample collection. Bile samples were collected at consecutive intervals of 0–3 h, 3–6 h, 6–9 h and 9–12 h after administration.
For each bile sample, a 200 μL aliquot of bile was mixed with an equal volume of a methanol/acetonitrile (1:1, v/v) solution. After vortexing for 2 min, the mixture was centrifuged at 13,200 rpm for 10 min. The precipitate was discarded, and the supernatant was dried under nitrogen gas. The dried residue was reconstituted in 80 μL of methanol, vortexed for 2 min, and centrifuged at 13,200 rpm for 15 min. The resulting supernatant was used for further analysis.
Ultra-high-performance liquid chromatography (UHPLC) coupled with a Q-Exactive orbitrap mass spectrometer (Thermo Fisher Scientific, San Jose, CA, USA) was used to analyzed the metabolites of AAI in rat bile. An ACQUITY UPLC BEH C18 column (2.1 mm × 50 mm, 1.7 μm, Waters, Milford, MA, USA) was employed for chromatographic separation. The mobile phase consisted of water containing 5 mmol/L ammonium formate/0.1% formic acid (A) and acetonitrile (B).
Metabolites in bile samples were analyzed using electrospray ionization (ESI) in both positive and negative ion modes. The spray voltage was set at 3500 V for positive mode and 3000 V for negative mode. The ion transfer tube temperature was maintained at 350 °C with a vaporizer temperature of 300 °C. The sheath gas and auxiliary gas flow rates were 35 Arb and 10 Arb. Full-scan MS data were acquired at a resolution of 35,000 within the mass range of m/z 100–1200. For MS/MS analysis, data-dependent acquisition (DDA) was performed at a resolution of 17,500 using high-energy collision dissociation (HCD). Post-acquisition data was imported into Compound Discoverer 2.1 software to identify AAI metabolites. Blank matrices were processed alongside samples to exclude the background interferences.

As to `COc1cccc2c1cc1c3c(cc4c(c32)OCO4)C(=O)N1O` [ALI-N-OH, N-hydroxyaristolactam I], the “detection in bile (biliary excretion)” value is listed as “detected in bile samples”.

Consider `COc1cccc2c1c(O)c1c3c(cc4c(c32)OCO4)C(=O)N1` [ALI-9-OH, 9-hydroxyaristolactam I], for which the “detection in bile (biliary excretion)” value was “detected in bile samples”.

As for `COc1cccc2c1cc([N+](=O)[O-])c1c(C(=O)OC3OC(C(=O)O)C(O)C(O)C3O)cc3c(c12)OCO3` (stereo not drawn) [AAI-O-glucuronide], the “detection in bile (biliary excretion)” value is “detectable in bile collected during four consecutive periods after oral administration”.
